Experiments:
UTRN mRNA = assay: fLuc reporter gene assay, UTRN 5′-UTR and 3′-UTR stable cell line; type: cell-based, human; conditions: 7.5 μM test concentration, 24 hours, vs 0.5% DMSO, luciferase luminescence, stable 293H or RD cells
From the text: (§1) As shown in the following examples, compounds that modulate the expression of proteins (e.g., mIGF1, ITGA7, or UTRN) have been identified or validated and have the potential to treat MD, or a form thereof. Stable muscle (RD) or kidney (293H) cell lines expressing the firefly luciferase (fLuc) reporter gene flanked by the 5′-UTR and 3′-UTR of mIGF1, ITGA7, or UTRN mRNA were constructed and used to identify or validate compounds able to specifically increase expression of a reporter gene via nucleic acid constructs comprising at least the 5′-UTR and 3′-UTR of mIGF1, ITGA7 or UTRN and to increase expression of endogenous mIGF1, ITGA7 or UTRN protein.
(§2) A high-level expression vector, pcDNA™3.1/Hygro (Invitrogen Corp., Carlsbad, Calif.) was used for preparing the constructs comprising the luciferase gene flanked by any of the 5′-UTR and 3′-UTR, the 5′-UTR or the 3′-UTR of mIGF1, ITGA7, and UTRN mRNA. In a pcDNA™3.1/Hygro vector, the UTRs and restriction sites normally associated with cloning and/or expressing a gene of interest or reporter gene were removed or replaced. For each construct containing 5′ UTR sequences, the 5′ UTR sequences with a start codon were cloned into the vector using the appropriate restriction sites.
(§3) Stable 293H and RD cell lines containing the firefly luciferase (fLuc) gene flanked by mIGF1, ITGA7, or UTRN 5′-UTR and 3′-UTR were cultured in DMEM medium supplemented with 10% FBS and 200 μg/mL hygromycin in Fisher T175 flasks. The cells were passaged every 4 days at 1:10 dilution. Cultures were kept in a 37° C. and 5% CO2 incubator. The cells were scaled-up three days before performing the assay. Two confluent T175 flasks were split into twenty T175 flasks (1:10 dilution). Cells were harvested from each confluent flask by removing all of the media and adding 4 mL of warmed trypsin to dislodge the cells. After the cells were dislodged, 16 mL of selective media was added for a final volume of 20 mL. The cells were expanded by adding 2 mL of the harvested cells into ten new T175 flasks plus 25 ml, of selective media. The twenty new flasks were placed into the 37° C., 5% CO2 incubator. On the day the assay was performed, the media was removed from the flasks and 3 mL of warmed trypsin was added to dislodge the cells. After the cells were dislodged, 10 mL of nonselective media was added to the flask. This was repeated for all twenty flasks and combined into one flask. 100 μL of the above cell culture plus 100 μL of Trypan Blue stain was counted on a hemocytometer. 38 μL of cells (approximately 263 cells/4) were plated in the presence of 2 μL of a compound to be tested (at final concentration of 7.5 μM with 0.5% DMSO).
(§4) The firefly luciferase substrate used was Luc Lite Plus Packard #6016969. Luciferase activity was immediately assayed using a ViewLux Imaging system (Perkin Elmer).
(§5) The screening assay was performed by preparing plates containing test compounds and controls, including wells that contained only vehicle or a high inhibitor concentration and wells that provided an 8-point dose response curve of puromycin, a non-specific standard control inhibitor. The cells were grown overnight in the presence of compounds or controls at 37° C. in 5% CO2. Compounds were screened once for percent inhibition at a 7.5 μM test concentration. After 24 hours, the amount of luminescence was determined using a ViewLux Imaging system (Perkin Elmer).
(§6) The results for compounds shown in the following tables indicate that the compounds of the present invention enhance post-transcriptional expression of a nucleic acid construct comprising a reporter gene operably linked to any of the 5′-UTR and 3′-UTR, the 5′-UTR or the 3′-UTR of the target mIGF1 mRNA (Table 1), ITGA7 mRNA (Table 2), or UTRN mRNA (Table 3). […]

ITGA7 mRNA = assay: fLuc reporter gene assay, ITGA7 5′-UTR and 3′-UTR stable cell line; type: cell-based, human; conditions: 7.5 μM test concentration, 24 hours, vs 0.5% DMSO, luciferase luminescence, stable 293H or RD cells
From the text: as §1, §2, §3, §4, §5, §6

mIGF1 mRNA = assay: fLuc reporter gene assay, mIGF1 5′-UTR and 3′-UTR stable cell line; type: cell-based, human; conditions: 7.5 μM test concentration, 24 hours, vs 0.5% DMSO, luciferase luminescence, stable 293H or RD cells
From the text: as §1, §2, §3, §4, §5, §6

[1] = CellTiter-Glo cytotoxicity assay, U937; type: cell-based; conditions: human, U937 cells (monocyte cell line); U937, relatively sensitive cell line
From the text: To evaluate cytotoxicity of the compounds in the 293H and RD cell lines, the CellTiter-Glo assay (Promega) is utilized. CellTiter-Glo determines the number of viable cells in culture based on quantification of the ATP present, which signals the presence of metabolically active cells. A reduction in cellular ATP is indicative of a cytotoxic or cytostatic effect. Doxorubicin, a known cytotoxic compound, is used to address the sensitivity of the tested cell line. For relatively sensitive cell lines, such as U937 (a human monocyte cell line), the CC50 of doxorubicin ranges from 4 to 10 nM.

[2] = CellTiter-Glo cytotoxicity assay, Huh7; type: cell-based; conditions: human, Huh7 cells (hepatoblastoma cell line); Huh7, intermediate level of sensitivity
dystrophin [3] = conditions: human clinical trials; cited from earlier work
dystrophin [4] = conditions: mouse model; results could not be replicated; cited from earlier work

Compound: Nc1ccc(Sc2cc(Cl)nc(N)n2)cc1 [Cpd 1, 4-(4-aminophenylthio)-6-chloropyrimidin-2-amine]
- UTRN, fold increase compared to negative control (UTRN mRNA): ** (two stars indicate a greater than one-fold and up to two-fold increase in target mRNA)
- ITGa7, fold increase compared to negative control (ITGA7 mRNA): ** (two stars indicate a greater than one-fold and up to two-fold increase in target mRNA)
- mIGF1, fold increase compared to negative control (mIGF1 mRNA): ** (two stars indicate a greater than one-fold and up to two-fold increase in target mRNA)

Compound: CN(C)c1ccc(-c2nc3cc([N+](=O)[O-])ccc3[nH]2)cc1 [Cpd 2, N,N-dimethyl-4-(5-nitro-1H-benzo[d]imidazol-2-yl)aniline]
- UTRN, fold increase compared to negative control (UTRN mRNA): *** (three stars indicate a greater than two-fold and up to three-fold increase in target mRNA)
- ITGa7, fold increase compared to negative control (ITGA7 mRNA): **** (four stars indicate a greater than three-fold and up to four-fold increase in target mRNA)
- mIGF1, fold increase compared to negative control (mIGF1 mRNA): ** (two stars indicate a greater than one-fold and up to two-fold increase in target mRNA)

Compound: CCCc1cc(Cl)n2c(nc3ccccc32)c1C#N [Cpd 3, 1-chloro-3-propyl-benzoimidazo[1,2-a]pyridine-4-carbonitrile]
- UTRN, fold increase compared to negative control (UTRN mRNA): ** (two stars indicate a greater than one-fold and up to two-fold increase in target mRNA)
- ITGa7, fold increase compared to negative control (ITGA7 mRNA): * (one star indicates less than one-fold increase in target mRNA)
- mIGF1, fold increase compared to negative control (mIGF1 mRNA): * (one star indicates less than one-fold increase in target mRNA)

Compound: Oc1cccc(-c2nc3ccc4ccccc4c3c3c2CCC3)c1 [Cpd 4, 3-(2,3-dihydro-1H-benzo[f]cyclopenta[c]quinolin-4-yl)phenol]
- UTRN, fold increase compared to negative control (UTRN mRNA): ** (two stars indicate a greater than one-fold and up to two-fold increase in target mRNA)
- ITGa7, fold increase compared to negative control (ITGA7 mRNA): *** (three stars indicate a greater than two-fold and up to three-fold increase in target mRNA)
- mIGF1, fold increase compared to negative control (mIGF1 mRNA): *** (three stars indicate a greater than two-fold and up to three-fold increase in target mRNA)

Compound: CCOc1ccc(C(=O)NC(=S)Nc2ccc(-c3nc4ccccc4s3)cc2)cc1[N+](=O)[O-] [Cpd 5, N-(4-(benzo[d]thiazol-2-yl)phenylcarbamothioyl)-4-ethoxy-3-nitrobenzamide]
- UTRN, fold increase compared to negative control (UTRN mRNA): *** (three stars indicate a greater than two-fold and up to three-fold increase in target mRNA)
- ITGa7, fold increase compared to negative control (ITGA7 mRNA): *** (three stars indicate a greater than two-fold and up to three-fold increase in target mRNA)
- mIGF1, fold increase compared to negative control (mIGF1 mRNA): ** (two stars indicate a greater than one-fold and up to two-fold increase in target mRNA)

Compound: N#CC1=C(N)Oc2c(ccc3ccccc23)C1c1cccc(C(F)(F)F)c1 (stereo not shown) [Cpd 6, 2-amino-4-(3-(trifluoromethyl)phenyl)-4H-benzo[h]chromene-3-carbonitrile]
- UTRN, fold increase compared to negative control (UTRN mRNA): ** (two stars indicate a greater than one-fold and up to two-fold increase in target mRNA)
- ITGa7, fold increase compared to negative control (ITGA7 mRNA): * (one star indicates less than one-fold increase in target mRNA)
- mIGF1, fold increase compared to negative control (mIGF1 mRNA): * (one star indicates less than one-fold increase in target mRNA)

Compound: CCCCOc1ccc(C(=O)NC(=S)Nc2cc(-c3nc4ccccc4s3)ccc2C)cc1 [Cpd 7, N-(5-(benzo[d]thiazol-2-yl)-2-methylphenylcarbamothioyl)-4-butoxybenzamide]
- UTRN, fold increase compared to negative control (UTRN mRNA): ** (two stars indicate a greater than one-fold and up to two-fold increase in target mRNA)
- ITGa7, fold increase compared to negative control (ITGA7 mRNA): **** (four stars indicate a greater than three-fold and up to four-fold increase in target mRNA)
- mIGF1, fold increase compared to negative control (mIGF1 mRNA): *** (three stars indicate a greater than two-fold and up to three-fold increase in target mRNA)

Compound: COc1cccc2c1C(=O)c1c(O)c3c(c(O)c1C2=O)C[C@@](O)(C(=O)CO)C[C@@H]3O[C@H]1C[C@H](N)[C@H](O)[C@H](C)O1 [doxorubicin, Doxorubicin]
- CC50 [1]: 0.004 to 0.01 µM
- CC50 [2]: 0.07 to 0.3 µM

Compound: gentamicin
- increase in expression of dystrophin (dystrophin [3]): no increase
- increase in dystrophin levels (dystrophin [4]): 10-20%
